{"source": "paper doi:10.1101/2024.07.10.602960v2", "about": "“Contrasting Kinetics of Highly Similar Chloroalkane Reductive Dehalogenases” (biorxiv, 2024)", "key": {"AcdA [1]": {"test_system": "T1, AcdA", "T1 construct": "expressed from p15TVL-acdA with pBAD42-BtuCEDFB in E. coli BL21(DE3) suf strain; partially purified; 48 kDa; cobamide and two iron-sulfur clusters", "test": "GC-FID product formation in gas-tight syringe, […] min; Michaelis-Menten fit", "type": "biochemical, Dehalobacter sp.", "details": "50 mM Tris-HCl pH 7.5, 1 mM methyl viologen, 5 mM Ti(III) citrate, anaerobic, 24 °C"}, "CfrA [2]": {"target": "T2, CfrA (Dehalobacter sp. CF, UniProt K4LFB7)", "T2 construct": "expressed from p15TVL-cfrA with pBAD42-BtuCEDFB in E. coli BL21(DE3) suf strain; partially purified; 48 kDa; cobamide and two iron-sulfur clusters", "test": "GC-FID, total consumption in gas-tight syringe, […] min; substrate-inhibition Michaelis-Menten fit", "type": "biochemical", "details": "50 mM Tris-HCl pH 7.5, 1 mM methyl viologen, 5 mM Ti(III) citrate, anaerobic, 24 °C"}, "AcdA [3]": {"test_system": "T1, AcdA", "test": "GC-FID, total consumption in gas-tight syringe, […] min; substrate-inhibition Michaelis-Menten fit", "type": "biochemical, Dehalobacter sp.", "details": "50 mM Tris-HCl pH 7.5, 1 mM methyl viologen, 5 mM Ti(III) citrate, anaerobic, 24 °C"}, "TmrA [4]": {"target": "T3, TmrA (Dehalobacter sp. UNSWDHB, UniProt T0I6H2)", "T3 construct": "expressed from p15TVL-tmrA with pBAD42-BtuCEDFB in E. coli BL21(DE3) suf strain; partially purified; 48 kDa; cobamide and two iron-sulfur clusters", "T3 sequence (T0I6H2 51-456)": "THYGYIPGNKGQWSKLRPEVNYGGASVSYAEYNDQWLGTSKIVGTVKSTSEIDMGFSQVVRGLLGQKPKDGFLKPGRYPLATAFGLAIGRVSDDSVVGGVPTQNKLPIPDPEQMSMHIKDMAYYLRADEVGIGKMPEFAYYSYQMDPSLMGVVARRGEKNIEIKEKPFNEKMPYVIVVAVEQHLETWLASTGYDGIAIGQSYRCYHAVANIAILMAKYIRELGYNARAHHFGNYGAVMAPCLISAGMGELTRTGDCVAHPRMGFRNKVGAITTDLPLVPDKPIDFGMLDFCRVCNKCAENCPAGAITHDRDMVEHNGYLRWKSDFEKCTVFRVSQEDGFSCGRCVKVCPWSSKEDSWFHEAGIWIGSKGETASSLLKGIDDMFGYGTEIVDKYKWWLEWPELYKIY", "test": "GC-FID, total consumption in gas-tight syringe, […] min; substrate-inhibition Michaelis-Menten fit", "type": "biochemical", "details": "50 mM Tris-HCl pH 7.5, 1 mM methyl viologen, 5 mM Ti(III) citrate, anaerobic, 24 °C"}, "AcdA [5]": {"target": "T1, AcdA", "test": "GC-FID, total consumption in gas-tight syringe, […] min; substrate-inhibition Michaelis-Menten fit", "type": "biochemical, Dehalobacter sp.", "details": "50 mM Tris-HCl pH 7.5, 1 mM methyl viologen, 5 mM Ti(III) citrate, anaerobic, 24 °C", "remark": "listed apart in the source"}, "AcdA [6]": {"test_system": "AcdA", "details": "50 mM Tris-HCl pH 7.5, 1 mM methyl viologen, 5 mM Ti(III) citrate, anaerobic, 24 °C"}, "AcdA [7]": {"target": "AcdA", "details": "50 mM Tris-HCl pH 7.5, 1 mM methyl viologen, 5 mM Ti(III) citrate, anaerobic, 24 °C; substrate inhibition"}, "CfrA [8]": {"target": "T4, CfrA (Dehalobacter sp. CF, UniProt K4LFB7)", "T4 construct": "expressed from p15TVL-cfrA with pBAD42-BtuCEDFB in E. coli BL21(DE3) suf strain; partially purified; 48 kDa; cobamide and two iron-sulfur clusters", "T4 sequence (K4LFB7 43-456 limits assumed)": "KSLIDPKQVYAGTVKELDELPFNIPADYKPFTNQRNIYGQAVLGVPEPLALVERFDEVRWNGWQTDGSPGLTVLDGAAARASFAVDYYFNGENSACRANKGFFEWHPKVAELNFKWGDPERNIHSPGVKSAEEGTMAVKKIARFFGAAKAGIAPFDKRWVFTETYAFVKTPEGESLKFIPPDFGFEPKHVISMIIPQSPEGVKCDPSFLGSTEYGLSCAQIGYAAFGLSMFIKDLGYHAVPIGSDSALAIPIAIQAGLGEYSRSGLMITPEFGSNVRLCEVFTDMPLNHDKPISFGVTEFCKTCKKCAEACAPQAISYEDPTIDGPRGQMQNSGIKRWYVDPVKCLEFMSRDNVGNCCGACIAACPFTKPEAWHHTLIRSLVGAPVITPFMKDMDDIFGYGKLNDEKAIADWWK", "test": "inhibition of chloroform dechlorination, GC-FID, […] min; single TCE concentration fit", "type": "biochemical", "details": "uncompetitive; chloroform as substrate, about […] TCE, […] Tris-HCl pH […] methyl viologen, Ti(III) citrate, […] °C"}, "TmrA [9]": {"target": "T3, TmrA", "test": "inhibition of chloroform dechlorination, GC-FID, […] min; single TCE concentration fit", "type": "biochemical", "details": "uncompetitive; chloroform as substrate, about 45 µM TCE, 50 mM Tris-HCl pH 7.5, 1 mM methyl viologen, Ti(III) citrate, 20 °C"}}, "note": "Read-outs that look alike come from different tables or passages of the source."}
{"smiles": "CC(Cl)(Cl)Cl", "note": "[1,1,1-trichloroethane]", "values": [{"measurement": "Km", "setting": "AcdA [1]", "value": "280 ± 100", "unit": "µM"}]}
{"smiles": "ClCC(Cl)Cl", "note": "[1,1,2-trichloroethane]", "values": [{"measurement": "KI,TCA", "setting": "CfrA [2]", "value": "7.1 ± 4.4", "unit": "mM"}, {"measurement": "Km", "setting": "AcdA [3]", "value": "120 ± 20", "unit": "µM"}, {"measurement": "KI,TCA", "setting": "TmrA [4]", "value": "6.2 ± 3.7", "unit": "mM"}, {"measurement": "KI,TCA", "setting": "AcdA [5]", "value": "2 ± 0.55", "unit": "mM"}]}
{"smiles": "ClC(Cl)Cl", "note": "[chloroform]", "values": [{"measurement": "Km", "setting": "AcdA [6]", "value": "29 ± 8", "unit": "µM"}, {"measurement": "KI,CF", "setting": "AcdA [7]", "value": "0.61 ± 0.24", "unit": "mM"}]}
{"smiles": "ClC=C(Cl)Cl", "note": "[trichloroethene]", "values": [{"measurement": "KI,TCE", "setting": "CfrA [8]", "value": "All three enzymes showed better model fits with uncompetitive inhibition"}, {"measurement": "KI,TCE", "setting": "TmrA [9]", "value": "All three enzymes showed better model fits with uncompetitive inhibition"}]}
